From patent US20090227619A1, “Harmine derivatives, intermediates used in their preparations, preparation processes and use therefo” (priority 2003, published 2009)
pIC50: −log10 of the molar value. Read-outs that look alike come from different tables or passages of the source.

Tests used:
Bel-7402 = assay: In vitro cytotoxicity, IC50 by MTT method, Bel-7402; format: cell-based
Outline: (§1)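 Cells in RPMI1640 with 10% FBS at 37° C, 5% CO2 were seeded at 10^5/ml and exposed to a compound concentration gradient for 48 h, at least three replicates, solvent controls.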

CT-DNA [1] = assay: UV absorption spectrum method with CT-DNA; format: binding; settings: CT-DNA 40 ug/ml, compound 20 uM, 37° C. for 2 h, OD at 260 nm
Hela = assay: In vitro cytotoxicity, IC50 by MTT method, Hela; format: cell-based
Outline: as §1

NIH3T3 = assay: In vitro cytotoxicity, IC50 by MTT method, NIH3T3; format: cell-based
Outline: as §1

HepG2 = assay: In vitro cytotoxicity, IC50 by MTT method, HepG2; format: cell-based, human
Outline: as §1

Lewis lung cancer = settings: for Body weight of the animals, end, First time / Body weight of the animals, end, Second time: ip × 10qd
S180 sarcoma = settings: for Body weight of the animals, beginning, First time / Body weight of the animals, end, First time / Inhibition rate, First time / Weight of the tumor X ± SD, First time / Body weight of the animals, beginning, Second time / Body weight of the animals, end, Second time / Inhibition rate, Second time: ip × 10qd
BGC-823 = assay: In vitro cytotoxicity, IC50 by MTT method, BGC-823; format: cell-based
Outline: as §1

CT-DNA [2] = assay: DNA thermal denaturation, determination of ΔTm; format: binding; settings: 20 uM compound, Tm of CT-DNA alone 61° C.
Outline: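 CT-DNA at 15 ug/ml in PE buffer (1 mM Na2HPO4, 0.1 mM EDTA, pH 7.6), heated at 0.5° C./min from 25 to 95° C. Tm taken as hyperchromic transition mid-point; ΔTm = Tm of drug-DNA complex minus Tm of DNA alone, mean of three runs.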

PLA-801 = assay: In vitro cytotoxicity, IC50 by MTT method, PLA-801; format: cell-based
Outline: as §1

Lovo = assay: In vitro cytotoxicity, IC50 by MTT method, Lovo; format: cell-based
Outline: as §1

Kunming mice = settings: summary Table 34, compounds marked *, results [153] of the previous tests; in mg/kg; cited from earlier work
HepG2 cells = assay: FCM analysis of apoptosis of HepG2 cells; format: cell-based, human; settings: FIG. 6
[3] = Homo sapiens, Bel-7402, BeI7402, MTT, read-out: IC50
[4] = Homo sapiens, Hela, MTT, read-out: IC50
[5] = Mus musculus, NIH3T3, MTT, read-out: IC50
[6] = Homo sapiens, HepG2, MTT, read-out: IC50
[7] = comparison table 43, in vivo, Lewis lung cancer
[8] = comparison table 43, in vivo, S180 sarcoma
[9] = Homo sapiens, BGC-823, BGC823, MTT, read-out: IC50
[10] = Homo sapiens, Lovo, MTT, read-out: IC50
[11] = Lewis lung cancer, Dosage 50 (mg/ml)
[12] = Lewis lung cancer, Dosage 50, ip × 10qd
[13] = Lewis lung cancer, Dosage 100 (mg/ml)
[14] = Lewis lung cancer, Dosage 100, ip × 10qd
[15] = S180 sarcoma, Dosage 50 (mg/ml)
[16] = S180 sarcoma, Dosage 100 (mg/ml)
[17] = PLA-801 cell strain, read-out: IC50 PLA-801
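For Inhibition rate (%) Lewis cancer in this document: mice implanted subcutaneously in the axilla with Lewis lung tumor cells, treated starting the following day, killed roughly three weeks after implantation.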

## CCn1c2cc(OC)ccc2c2ccnc(C)c21 [Compound 3, 7-methoxyl-9-ethyl-1-methyl-β-carboline]
Bel-7402; Homo sapiens, Bel-7402
  pIC50: 4.52
CT-DNA [1]
  Influence on the UV absorption of DNA: reduce the UV absorption of DNA
Hela; Homo sapiens, HeLa
  pIC50: 4.70
NIH3T3; Mus musculus, NIH3T3
  pIC50: 4.15
HepG2; Homo sapiens, HepG2
  pIC50: 5.00
Lewis lung cancer; mouse, in vivo
  Inhibition rate (%) Lewis cancer: 42.0%
S180 sarcoma; mouse, in vivo
  Inhibition rate (%) S180 sarcomata: 37.6%
BGC-823; Homo sapiens, BGC-823
  pIC50: 4.30
CT-DNA [2]; CT-DNA thermal denaturation
  ΔTm: 7.3 °C
PLA-801
  pIC50: 4.70
Lovo; Homo sapiens, LoVo
  pIC50: 3.77
Kunming mice
  LD50: 24.25

## CCCCn1c2cc(OC)ccc2c2ccnc(C)c21 [Compound 4, 7-methoxyl-9-n-butyl-1-methyl-β-carboline]
Bel-7402; [3]
  pIC50: 4.22
CT-DNA [1]
  Influence on the UV absorption of DNA: reduce the UV absorption of DNA
Hela; [4]
  pIC50: 4.52
NIH3T3; [5]
  pIC50: 4.40
HepG2; [6]
  pIC50: 4.22
Lewis lung cancer; [7]
  Inhibition rate (%) Lewis cancer: 44.0%
S180 sarcoma; [8]
  Inhibition rate (%) S180 sarcomata: 40.9%
BGC-823; [9]
  pIC50: 4.15
CT-DNA [2]; CT-DNA thermal denaturation
  ΔTm: 6.7 °C
PLA-801; PLA-801, MTT, read-out: IC50
  pIC50: 3.96
Lovo; [10]
  pIC50: 4.05
Kunming mice
  LD50: 26.45

## O=C(O)c1cc2c(cn1)[nH]c1ccccc12 [Compound 17, β-carboline-3-carboxylic acid]
Bel-7402; [3]
  pIC50: 3.64
Hela; [4]
  pIC50: 3.66
NIH3T3; [5]
  pIC50: 4.22
HepG2; [6]
  pIC50: 3.55
Lewis lung cancer; [11]
  Body weight of the animals, end, First time: 25.4 g
  Body weight of the animals, end, Second time: 25.4 g
Lewis lung cancer; [12]
  Body weight of the animals, beginning, First time: 19.2 g
  Inhibition rate, First time: 31.40%
  Weight of the tumor X ± SD, First time: 2.01 ± 0.28 g
  Body weight of the animals, beginning, Second time: 20.2 g
  Inhibition rate, Second time: 27.98%
  Weight of the tumor X ± SD, Second time: 1.75 ± 0.09 g
Lewis lung cancer; [13]
  Body weight of the animals, end, First time: 24.8 g
  Body weight of the animals, end, Second time: 24.9 g
Lewis lung cancer; [14]
  Body weight of the animals, beginning, First time: 19.0 g
  Inhibition rate, First time: 37.20%
  Weight of the tumor X ± SD, First time: 1.84 ± 0.48 g
  Body weight of the animals, beginning, Second time: 20.4 g
  Inhibition rate, Second time: 37.86%
  Weight of the tumor X ± SD, Second time: 1.51 ± 0.09 g
Lewis lung cancer; [7]
  Inhibition rate (%) Lewis cancer: 33.4%
S180 sarcoma; [15]
  Body weight of the animals, beginning, First time: 19.2 g
  Body weight of the animals, end, First time: 24.7 g
  Inhibition rate, First time: 23.97%
  Weight of the tumor X ± SD, First time: 2.03 ± 0.24 g
  Body weight of the animals, beginning, Second time: 18.5 g
  Body weight of the animals, end, Second time: 25.9 g
  Inhibition rate, Second time: 25.19%
S180 sarcoma; S180 sarcoma, Dosage 50, ip × 10qd
  Weight of the tumor X ± SD, Second time: 2.02 ± 0.21 g
S180 sarcoma; [16]
  Body weight of the animals, beginning, First time: 19.3 g
  Body weight of the animals, end, First time: 24.2 g
  Inhibition rate, First time: 35.21%
  Weight of the tumor X ± SD, First time: 1.73 ± 0.16 g
  Body weight of the animals, beginning, Second time: 18.6 g
  Body weight of the animals, end, Second time: 25.3 g
  Inhibition rate, Second time: 32.96%
S180 sarcoma; S180 sarcoma, Dosage 100, ip × 10qd
  Weight of the tumor X ± SD, Second time: 1.81 ± 0.20 g
S180 sarcoma; [8]
  Inhibition rate (%) S180 sarcomata: 32.2%
BGC-823; [9]
  pIC50: 3.55
PLA-801; PLA-801, MTT, read-out: IC50
  pIC50: 3.52
Lovo; [10]
  pIC50: 3.77
Kunming mice
  LD50: 135.22

## COc1ccc2c3ccnc(C)c3n(Cc3ccccc3)c2c1 [Compound 6, 9-benzyl-7-methoxy-1-methyl-β-carboline]
Bel-7402; [3]
  pIC50: 4.22
CT-DNA [1]
  Influence on the UV absorption of DNA: reduce the UV absorption of DNA
Hela; [4]
  pIC50: 3.57
NIH3T3; [5]
  pIC50: 4.30
HepG2; [6]
  pIC50: 4.05
Lewis lung cancer; [7]
  Inhibition rate (%) Lewis cancer: 46.9%
S180 sarcoma; [8]
  Inhibition rate (%) S180 sarcomata: 45.2%
BGC-823; [9]
  pIC50: 4.00
CT-DNA [2]; CT-DNA 15 ug/ml, PE buffer pH 7.6
  ΔTm: 10.3 °C
CT-DNA [2]; CT-DNA thermal denaturation
  ΔTm: 10.3 °C
PLA-801; PLA-801, MTT, read-out: IC50
  pIC50: 4.22
Lovo; [10]
  pIC50: 4.30
Kunming mice
  LD50: 147.82

## CCOC(=O)c1cc2c3ccccc3n(Cc3c(F)c(F)c(F)c(F)c3F)c2c(C)n1 [Compound 60, ethyl 9-(2′,3′,4′,5′,6′-pentafluoro)benzyl-1-methyl-β-carboline-3-carboxylate]
Bel-7402; Bel7402 cell strain, read-out: IC50 Bel7402
  pIC50: 4.00
Hela; Hela cell strain, read-out: IC50 Hela
  pIC50: 4.70
NIH3T3; NIH3T3 cell strain, read-out: IC50 NIH3T3
  pIC50: 4.40
HepG2; HepG2 cell strain, read-out: IC50 HepG2
  pIC50: 4.52
HepG2 cells
  Apoptosis of HepG2 cells (FCM analysis): apoptosis of HepG2 cells induced
BGC-823; BGC823 cell strain, read-out: IC50 BGC823
  pIC50: 5.40
PLA-801; [17]
  pIC50: 4.30
Lovo; Lovo cell strain, read-out: IC50 Lovo
  pIC50: 4.40

## COc1ccc2c3ccnc(C)c3n(C)c2c1 [Compound 2, 7-methoxyl-1,9-dimethyl-β-carboline]
Bel-7402; [3]
  pIC50: 4.22
Hela; [4]
  pIC50: 5.00
NIH3T3; [5]
  pIC50: 4.40
HepG2; [6]
  pIC50: 4.70
Lewis lung cancer; [7]
  Inhibition rate (%) Lewis cancer: 38.1%
S180 sarcoma; [8]
  Inhibition rate (%) S180 sarcomata: 32.1%
BGC-823; [9]
  pIC50: 4.30
CT-DNA [2]; CT-DNA thermal denaturation
  ΔTm: 5.3 °C
PLA-801; PLA-801, MTT, read-out: IC50
  pIC50: 4.52
Lovo; [10]
  pIC50: 4.40
Kunming mice
  LD50: 28.92

## COC(=O)c1cc2c3ccccc3n(C)c2cn1 [Compound 26, methyl 9-methyl-β-carboline-3-carboxylate]
Bel-7402; Homo sapiens, Bel-7402, Bel7402 cell strain, read-out: IC50 Bel7402
  pIC50: 3.72
Hela; Homo sapiens, Hela cell strain, read-out: IC50 Hela
  pIC50: 3.74
NIH3T3; Mus musculus, NIH3T3 cell strain, read-out: IC50 NIH3T3
  pIC50: 4.05
HepG2; Homo sapiens, HepG2 cell strain, read-out: IC50 HepG2
  pIC50: 3.92
Lewis lung cancer; [7]
  Inhibition rate (%) Lewis cancer: 35.0%
S180 sarcoma; [8]
  Inhibition rate (%) S180 sarcomata: 31.1%
BGC-823; Homo sapiens, BGC-823, BGC823 cell strain, read-out: IC50 BGC823
  pIC50: 3.74
PLA-801; [17]
  pIC50: 3.92
Lovo; Homo sapiens, Lovo cell strain, read-out: IC50 Lovo
  pIC50: 3.74
Kunming mice
  LD50: 70.61
